What was measured:
Assay type in all cases: functional
[1] = test system: P388; test: In vivo antitumor activity against mouse P388 cells at 2 mg/kg in 3 day dosing schedule relative to control
[2] = test system: P388; test: In vivo antitumor activity against mouse P388 cells at 0.5 mg/kg in 3 day dosing schedule relative to control
[3] = test system: P388; test: In vivo antitumor activity against mouse P388 cells at 1 mg/kg in 3 day dosing schedule relative to control
[4] = test system: P388; test: In vivo antitumor activity against mouse P388 cells at 200 mg/kg in 1 day dosing schedule relative to control

Structure (SMILES)	T/C [1] [%]	T/C [2] [%]	T/C [3] [%]	T/C [4] [%]
CCCCCC(=O)O[C@H]1C(=O)O[C@@H]2C[C@H]3C(C)=CC(=O)[C@@H](O)[C@]3(C)[C@H]3[C@@H](O)[C@H](O)[C@@]4(C(=O)OC)OC[C@]32[C@@H]14	134	123		
COC(=O)[C@@]12OC[C@]34[C@H]([C@@H](O)[C@@H]1O)[C@@]1(C)[C@H](O)C(=O)C=C(C)[C@@H]1C[C@H]3OC(=O)[C@H](OC(=O)c1ccccc1)[C@@H]24		130	129	
O=c1[nH]cc(F)c(=O)[nH]1 [FLUOROURACIL]				135
